Experiments:
[1] = test system: P. falciparum K1 (CQ-resistant); assay: [3H]-hypoxanthine incorporation assay, K1 strain; type: cell-based; conditions: Plasmodium falciparum, values marked with asterisk: [3H]-hypoxanthine assay, read-out: IC50 growth inhibition K1 (*)
[2] = test system: P. falciparum NF54 (CQ sensitive); assay: [3H]-hypoxanthine incorporation assay, NF54 strain; type: cell-based; conditions: Plasmodium falciparum, values marked with asterisk: [3H]-hypoxanthine assay, read-out: IC50 growth inhibition NF54*

| SMILES | IC50 [1] [nM] | IC50 [2] [nM] |
| --- | --- | --- |
| CCCCNCC(O)COc1ccccc1C(=O)NCCC(C)C (stereo not shown) [Compound I-56, 2-(3-Butylamino-2-hydroxy-propoxy)-N-(3-methyl-butyl)-benzamide] | 827 | 2750 |
| O=C(NCCc1ccccc1)c1cc(Cl)ccc1OCC(O)CNC1C2CC3CC(C2)CC1C3 (stereo not shown) [Compound I-10, 2-[3-(Adamantan-2-ylamino)-2-hydroxy-propoxy]-5-chloro-N-phenethyl-benzamide] | 26 | 96 |
| O=C(Nc1cccc(C(F)(F)F)c1)c1cc(Cl)ccc1OCC(O)CNCC12CC3CC(CC(C3)C1)C2 (stereo not shown) [Compound I-72, 2-{3-[(Adamantan-1-ylmethyl)-amino]-2-hydroxy-propoxy}-5-chloro-N-(3-trifluoromethyl-phenyl)-benzamide] | 1 | 4.2 |
| CN(CC(O)COc1ccccc1C(=O)Nc1ccc(F)cc1)CC12CC3CC(CC(C3)C1)C2 (stereo not shown) [Compound I-37, 2-[3-(Adamantan-1-ylmethyl-methyl-amino)-2-hydroxy-propoxy]-N-(4-fluoro-phenyl)-benzamide] | 16 | 63 |
| C=CCc1ccccc1NC(=O)c1ccccc1OCC(O)CNCC12CC3CC(CC(C3)C1)C2 (stereo not shown) [Compound I-73, 2-{3-[(Adamantan-1-ylmethyl)-amino]-2-hydroxy-propoxy}-N-(2-allyl-phenyl)-benzamide] | 21 | 73 |
| CC12CC3CC(C)(C1)CC(NCC(O)COc1ccccc1C(=O)Nc1ccc(F)cc1)(C3)C2 (stereo not shown) [Compound I-4, 2-[3-(3,5-Dimethyl-adamantan-1-ylamino)-2-hydroxy-propoxy]-N-(4-fluoro-phenyl)-benzamide] | 8 | 38 |
| O=C(Nc1cccc(C(F)(F)F)c1)c1cc(Cl)ccc1OCC(O)CN1CCC(c2ccccc2)CC1 (stereo not shown) [Compound I-83, 5-Chloro-2-[2-hydroxy-3-(4-phenyl-piperidin-1-yl)-propoxy]-N-(3-trifluoromethyl-phenyl)-benzamide] | 3.5 | 16 |
| CC(C)CCNC(=O)c1ccccc1OCC(O)CNCC12CC3CC(CC(C3)C1)C2 (stereo not shown) [Compound I-24, 2-{3-[(Adamantan-1-ylmethyl)-amino]-2-hydroxy-propoxy}-N-(3-methyl-butyl)-benzamide] | 36 | 134 |
| O=C(NCc1cccc2ccccc12)c1cc(Cl)ccc1OCC(O)CNCC12CC3CC(CC(C3)C1)C2 (stereo not shown) [Compound I-34, 2-{3-[(Adamantan-1-ylmethyl)-amino]-2-hydroxy-propoxy}-5-chloro-N-naphthalen-1-ylmethyl-benzamide] | 5 | 20 |
| C#CCOc1ccc(OCC(O)CNCc2ccc(C3(C(F)(F)F)N=N3)cc2)c(C(=O)Nc2ccc(F)cc2)c1 (stereo not shown) [Compound I-45, N-(4-Fluoro-phenyl)-2-{2-hydroxy-3-[4-(3-trifluoromethyl-3H-diazirin-3-yl)-benzylamino]-propoxy}-5-prop-2-ynyloxy-benzamide] | 542 | 1860 |
| CC(C)CCNC(=O)c1ccccc1OCC(O)CNCc1ccc(C(F)(F)F)cc1 (stereo not shown) [Compound I-60, 2-[2-Hydroxy-3-(4-trifluoromethyl-benzylamino)-propoxy]-N-(3-methyl-butyl)-benzamide] | 371 | 1360 |
| Cc1ccc(NC(=O)c2ccccc2OCC(O)CN2CCC(c3ccccc3)CC2)cc1 (stereo not shown) [Compound I-80, 2-[2-Hydroxy-3-(4-phenyl-piperidin-1-yl)-propoxy]-N-p-tolyl-benzamide] | 11 | 47 |
| Cc1ccc(NC(=O)c2ccccc2OCC(O)CN2CCC(Cc3ccccc3)CC2)cc1 (stereo not shown) [Compound I-81, 2-[3-(4-Benzyl-piperidin-1-yl)-2-hydroxy-propoxy]-N-p-tolyl-benzamide] | 8.6 | 36 |
| O=C(Nc1ccc(F)cc1)c1ccccc1OCC(O)CN1CCC(c2ccccc2)CC1 (stereo not shown) [Compound I-46, N-(4-Fluoro-phenyl)-2-[2-hydroxy-3-(4-phenyl-piperidin-1-yl)-propoxy]-benzamide] | 9 | 26 |
| O=C(Nc1ccccc1F)c1ccccc1OCC(O)CN1CCN(C(c2ccccc2)c2ccccc2)CC1 (stereo not shown) [Compound I-79, 2-[3-(4-Benzhydryl-piperazin-1-yl)-2-hydroxy-propoxy]-N-(2-fluoro-phenyl)-benzamide] | 83 | 258 |
| CCCCN(CCCC)CC(O)COc1ccccc1C(=O)Nc1ccc(F)cc1 (stereo not shown) [Compound I-61, 2-(3-Dibutylamino-2-hydroxy-propoxy)-N-(4-fluoro-phenyl)-benzamide] | 6 | 18 |
| O=C(Nc1cccc(C(F)(F)F)c1)c1ccccc1OCC(O)CN1CCN(C(c2ccccc2)c2ccccc2)CC1 (stereo not shown) [Compound I-69, 2-[3-(4-Benzhydryl-piperazin-1-yl)-2-hydroxy-propoxy]-N-(3-trifluoromethyl-phenyl)-benzamide] | 1.3 | 5.5 |
| CC(C)CCNCC(O)COc1ccccc1C(=O)NCCC(C)C (stereo not shown) [Compound I-58, 2-[2-Hydroxy-3-(3-methyl-butylamino)-propoxy]-N-(3-methyl-butyl)-benzamide] | 467 | 1690 |

| SMILES | IC50 [1] [nM] | IC50 [2] [nM] |
| --- | --- | --- |
| O=C(NCCCc1ccccc1)c1ccccc1OCC(O)CNCC12CC3CC(CC(C3)C1)C2 (stereo not shown) [Compound I-32, 2-{3-[(Adamantan-1-ylmethyl)-amino]-2-hydroxy-propoxy}-N-(3-phenyl-propyl)-benzamide] | 52 | 148 |
| O=C(Nc1ccccc1F)c1ccccc1OCC(O)CNCC12CC3CC(CC(C3)C1)C2 (stereo not shown) [Compound I-38, 2-{3-[(Adamantan-1-ylmethyl)-amino]-2-hydroxy-propoxy}-N-(2-fluoro-phenyl)-benzamide] | 8 | 24 |
| O=C(Nc1cccc(C(F)(F)F)c1)c1ccccc1OCC(O)CNC12CC3CC(CC(O)(C3)C1)C2 (stereo not shown) [Compound I-70, 2-[2-Hydroxy-3-(3-hydroxy-adamantan-1-ylamino)-propoxy]-N-(3-trifluoromethyl-phenyl)-benzamide] | 921 | 1500 |
| O=C(NCc1ccc(C(F)(F)F)cc1)c1ccccc1OCC(O)CNCC12CC3CC(CC(C3)C1)C2 (stereo not shown) [Compound I-30, 2-{3-[(Adamantan-1-ylmethyl)-amino]-2-hydroxy-propoxy}-N-(4-trifluoromethyl-benzyl)-benzamide] | 18 | 57 |
| O=C(Nc1ccc(F)cc1)c1cc(Cl)ccc1OCC(O)CNCC12CC3CC(CC(C3)C1)C2 (stereo not shown) [Compound I-66, 2-{3-[(Adamantan-1-ylmethyl)-amino]-2-hydroxy-pro-poxy}-5-chloro-N-(4-fluoro-phenyl)-benzamide] | 0.6 | 2.4 |
| O=C(Nc1ccc(Br)cc1)c1ccccc1OCC(O)CNCC12CC3CC(CC(C3)C1)C2 (stereo not shown) [Compound I-74, 2-{3-[(Adamantan-1-ylmethyl)-amino]-2-hydroxy-propoxy}-N-(4-bromo-phenyl)-benzamide] | 1.2 | 4.8 |
| O=C(Nc1ccc(F)cc1)c1ccccc1OCC(O)CN1CCN(C23CC4CC(CC(C4)C2)C3)CC1 (stereo not shown) [Compound I-5, 2-[3-(4-Adamantan-1-yl-piperazin-1-yl)-2-hydroxy-propoxy]-N-(4-fluoro-phenyl)-benzamide] | 12 | 59 |
| CC(NCC(O)COc1ccc(Cl)cc1C(=O)NCc1cccc2ccccc12)C12CC3CC(CC(C3)C1)C2 (stereo not shown) [Compound I-35, 2-[3-(1-Adamantan-1-yl-ethylamino)-2-hydroxy-propoxy]-5-chloro-N-naphthalen-1-ylmethyl-benzamide] | 4 | 14 |
| O=C(NCCc1ccccc1)c1ccccc1OCC(O)CNCC12CC3CC(CC(C3)C1)C2 (stereo not shown) [Compound I-31, 2-{3-[(Adamantan-1-ylmethyl)-amino]-2-hydroxy-propoxy}-N-phenethyl-benzamide] | 30 | 101 |
| CN(CC(O)COc1ccccc1C(=O)NCc1ccccc1)CC12CC3CC(CC(C3)C1)C2 (stereo not shown) [Compound I-36, 2-[3-(Adamantan-1-ylmethyl-methyl-amino)-2-hydroxy-propoxy]-N-benzyl-benzamide] | 182 | 670 |
| O=C(Nc1ccc(F)cc1)c1ccccc1OCC(O)CN1CCC(Cc2ccccc2)CC1 (stereo not shown) [Compound I-47, 2-[3-(4-Benzyl-piperidin-1-yl)-2-hydroxy-propoxy]-N-(4-fluoro-phenyl)-benzamide] | 7 | 16 |
| O=C(Nc1ccc2ccccc2c1)c1ccccc1OCC(O)CNCC12CC3CC(CC(C3)C1)C2 (stereo not shown) [Compound I-71, 2-{3-[(Adamantan-1-ylmethyl)-amino]-2-hydroxy-propoxy}-N-naphthalen-2-yl-benzamide] | 1.8 | 6.2 |
| O=C(Nc1cccc(C(F)(F)F)c1)c1ccccc1OCC(O)CN1CCC(c2ccccc2)CC1 (stereo not shown) [Compound I-67, 2-[2-Hydroxy-3-(4-phenyl-piperidin-1-yl)-propoxy]-N-(3-trifluoromethyl-phenyl)-benzamide] | 2.2 | 8.8 |
| CC(C)CCNC(=O)c1ccccc1OCC(O)CNC(C)C12CC3CC(CC(C3)C1)C2 (stereo not shown) [Compound I-25, 2-[3-(1-Adamantan-1-yl-ethylamino)-2-hydroxy-propoxy]-N-(3-methyl-butyl)-benzamide] | 18 | 74 |
| CCCCN(CCCC)CC(O)COc1ccccc1C(=O)NCCC(C)C (stereo not shown) [Compound I-57, 2-(3-Dibutylamino-2-hydroxy-propoxy)-N-(3-methyl-butyl)-benzamide] | 76 | 333 |
| O=C(Nc1ccc(F)cc1)c1ccccc1OCC(O)CNC12CC3CC(CC(C3)C1)C2 (stereo not shown) [Compound I-3, 2-[3-(Adamantan-1-ylamino)-2-hydroxy-propoxy]-N-(4-fluoro-phenyl)-benzamide] | 11 | 51 |
| Cc1ccc(NC(=O)c2ccccc2OCC(O)CN2CCN(C(c3ccccc3)c3ccccc3)CC2)cc1 (stereo not shown) [Compound I-82, 2-[3-(4-Benzhydryl-piperazin-1-yl)-2-hydroxy-propoxy]-N-p-tolyl-benzamide] | 5.9 | 24 |
